# Tested on: eggs of Panonychus citri
# Assay: Effect on hatching of eggs of Panonychus citri, leaf disc method
# Format: in vivo
# Conditions: 1 ppm; for Hatching rate (%), Replicate 1 / Hatching rate (%), Replicate 2 / Hatching rate (%), Replicate 3 / Number of hatched larvae 5 days after insecticide delivery, Replicate 1 / Number of hatched larvae 5 days after insecticide delivery, Replicate 2 / Number of hatched larvae 5 days after insecticide delivery, Replicate 3: Panonychus citri eggs; for Hatching rate (%), Replicate 1 / Hatching rate (%), Replicate 2 / Hatching rate (%), Replicate 3: 5 days after delivery; for Number of hatched larvae 5 days after insecticide delivery, Replicate 1 / Number of hatched larvae 5 days after insecticide delivery, Replicate 2 / Number of hatched larvae 5 days after insecticide delivery, Replicate 3: leaf disc
# Description: • (1) Preparation of leaf discs containing eggs: 20 female adult mites of Tetranychus cinnabarinus were transferred onto leaf discs of Vicia faba with a diameter of 2.0 cm (with wetted filter paper at the bottom), then covered it with a lidded culture dish and cultivated under moisturizing conditions, the adult mites were removed within 36 hours and microscopic examination and counting were performed on leaf discs containing eggs. • (2) Investigation of egg population base: Before pesticide soaking, a microscopic examination was conducted on the egg basic number of each leaf disc, with 2 replicates set for each treatment. • (3) Pesticide soaking treatment: The leaf butterflies loaded with mite eggs were soaked in clear water and sulfite compounds for 10 seconds, respectively, then taken out and cultivated under moisturizing conditions. Each treatment should be repeated for no less than 3 times. • (4) Cultivation and observation: The […] were cultivated under normal conditions. Five days after insecticide delivery, the hatching status of mite eggs was investigated. • Note: The temperature and humidity conditions of the constant temperature and humidity incubator after the treatment should be controlled so as to avoid excessive temperature differences, which may cause generation and dripping of condensate water in the culture dish, resulting in abnormal death of eggs due to soaking in water; it is also necessary to ensure sufficient strong ambient light, without directing irradiating the leaves. • (5) Survey of Results: The experimental materials of each treatment group were regularly hydrated and moisturized, and the hatching of eggs was observed. On the 7th day after insecticide delivery, the number of hatched eggs for each treatment was recorded, and the survey of results was recorded in the original notebook. According to the experimental requirements and characteristics of agents, the survey time can be shortened or extended.
# • 1) Surveying and recording the number of hatched eggs for each treatment. • 2) Photographing and recording whether there was any pesticide damage to the leaf discs of Vicia faba. • 3) Recording the developmental status of experimental mite eggs, behavior status of nymph mites, including abnormal phenomena such as delayed or stopped development of mite eggs, difficulty in breaking hull for nymph mites, or painful struggles after hatching, etc. • (6) Calculation method: Based on the survey data, the prevention and control effect of each treatment was calculated according to the following formula, and the calculation results were kept to two decimal places.
# This test adopted the method in Test Example 1 of technical section, mainly used leaf disc method to explore the effect on hatching of eggs of Panonychus citri by compounds 1-(S,S), 1-(S,R), 1-(R,R), 1-(R,S), 1′-(S,S), 1′-(S,R), 1′-(R,R), 1′-(R,S), compound 1, compound 1′, S-10, R-10, S-10′, R-10′, compound 10, compound 10′, compound 19-(S,S), 19-(S,R), 19-(R,R), 19-(R,S), 19′-(S,S), 19′-(S,R), 19′-(R,R), 19′-(R,S), compound 19, and compound 19′. The concentration of all compounds was 1 ppm.
structure (smiles),measurement,setting,value
"C[C@H](COS(=O)OCCF)Oc1ccc(Cl)cc1Cl (stereo partly drawn) [1-(R,R)]",inhibitory effect on the hatching of eggs of Panonychus citri (in words),,good inhibitory effects
same,"Hatching rate (%), Replicate 1","listed as 1-(R, R)",0.00%
same,"Hatching rate (%), Replicate 2","listed as 1-(R, R)",0.00%
same,"Hatching rate (%), Replicate 3","listed as 1-(R, R)",0.00%
same,"Number of hatched larvae 5 days after insecticide delivery, Replicate 1","listed as 1-(R, R)",0
same,"Number of hatched larvae 5 days after insecticide delivery, Replicate 2","listed as 1-(R, R)",0
same,"Number of hatched larvae 5 days after insecticide delivery, Replicate 3","listed as 1-(R, R)",0
"C[C@H](COS(=O)OCCF)Oc1ccc(Cl)cc1Cl (stereo partly drawn) [1-(R,S)]","Hatching rate (%), Replicate 1","listed as 1-(R, S)",7.14%
same,"Hatching rate (%), Replicate 2","listed as 1-(R, S)",8.39%
same,"Hatching rate (%), Replicate 3","listed as 1-(R, S)",8.14%
same,"Number of hatched larvae 5 days after insecticide delivery, Replicate 1","listed as 1-(R, S)",7
same,"Number of hatched larvae 5 days after insecticide delivery, Replicate 2","listed as 1-(R, S)",12
same,"Number of hatched larvae 5 days after insecticide delivery, Replicate 3","listed as 1-(R, S)",7
"C[C@@H](COS(=O)OCCF)Oc1ccc(Cl)cc1Cl (stereo partly drawn) [1-(S,R)]","Hatching rate (%), Replicate 1","listed as 1-(S, R)",5.83%
same,"Hatching rate (%), Replicate 2","listed as 1-(S, R)",5.75%
same,"Hatching rate (%), Replicate 3","listed as 1-(S, R)",6.06%
same,"Number of hatched larvae 5 days after insecticide delivery, Replicate 1","listed as 1-(S, R)",6
same,"Number of hatched larvae 5 days after insecticide delivery, Replicate 2","listed as 1-(S, R)",5
same,"Number of hatched larvae 5 days after insecticide delivery, Replicate 3","listed as 1-(S, R)",8
"C[C@@H](COS(=O)OCCF)Oc1ccc(Cl)cc1Cl (stereo partly drawn) [1-(S,S)]",inhibitory effect on the hatching of eggs of Panonychus citri (in words),,good inhibitory effects
same,"Hatching rate (%), Replicate 1","listed as 1-(S, S)",0.00%
same,"Hatching rate (%), Replicate 2","listed as 1-(S, S)",0.00%
same,"Hatching rate (%), Replicate 3","listed as 1-(S, S)",0.00%
same,"Number of hatched larvae 5 days after insecticide delivery, Replicate 1","listed as 1-(S, S)",0
same,"Number of hatched larvae 5 days after insecticide delivery, Replicate 2","listed as 1-(S, S)",0
same,"Number of hatched larvae 5 days after insecticide delivery, Replicate 3","listed as 1-(S, S)",0
"CC(COc1ccc(Cl)cc1Cl)OS(=O)OCCF [1′-(R,R)]","Hatching rate (%), Replicate 1","listed as 1′-(R, R)",8.33%
same,"Hatching rate (%), Replicate 2","listed as 1′-(R, R)",7.07%
same,"Hatching rate (%), Replicate 3","listed as 1′-(R, R)",5.51%
same,"Number of hatched larvae 5 days after insecticide delivery, Replicate 1","listed as 1′-(R, R)",6
same,"Number of hatched larvae 5 days after insecticide delivery, Replicate 2","listed as 1′-(R, R)",7
same,"Number of hatched larvae 5 days after insecticide delivery, Replicate 3","listed as 1′-(R, R)",7
"CC(COc1ccc(Cl)cc1Cl)OS(=O)OCCF [1′-(R,S)]",inhibitory effect on the hatching of eggs of Panonychus citri (in words),,good inhibitory effects
same,"Hatching rate (%), Replicate 1","listed as 1′-(R, S)",0.00%
same,"Hatching rate (%), Replicate 2","listed as 1′-(R, S)",0.00%
same,"Hatching rate (%), Replicate 3","listed as 1′-(R, S)",0.00%
same,"Number of hatched larvae 5 days after insecticide delivery, Replicate 1","listed as 1′-(R, S)",0
same,"Number of hatched larvae 5 days after insecticide delivery, Replicate 2","listed as 1′-(R, S)",0
same,"Number of hatched larvae 5 days after insecticide delivery, Replicate 3","listed as 1′-(R, S)",0
"CC(COc1ccc(Cl)cc1Cl)OS(=O)OCCF [1′-(S,R)]",inhibitory effect on the hatching of eggs of Panonychus citri (in words),,good inhibitory effects
same,"Hatching rate (%), Replicate 1","listed as 1′-(S, R)",0.00%
same,"Hatching rate (%), Replicate 2","listed as 1′-(S, R)",0.00%
same,"Hatching rate (%), Replicate 3","listed as 1′-(S, R)",0.00%
same,"Number of hatched larvae 5 days after insecticide delivery, Replicate 1","listed as 1′-(S, R)",0
same,"Number of hatched larvae 5 days after insecticide delivery, Replicate 2","listed as 1′-(S, R)",0
same,"Number of hatched larvae 5 days after insecticide delivery, Replicate 3","listed as 1′-(S, R)",0
"CC(COc1ccc(Cl)cc1Cl)OS(=O)OCCF [1′-(S,S)]","Hatching rate (%), Replicate 1","listed as 1′-(S, S)",14.73%
same,"Hatching rate (%), Replicate 2","listed as 1′-(S, S)",16.05%
same,"Hatching rate (%), Replicate 3","listed as 1′-(S, S)",16.67%
same,"Number of hatched larvae 5 days after insecticide delivery, Replicate 1","listed as 1′-(S, S)",19
same,"Number of hatched larvae 5 days after insecticide delivery, Replicate 2","listed as 1′-(S, S)",13
same,"Number of hatched larvae 5 days after insecticide delivery, Replicate 3","listed as 1′-(S, S)",18
"CCC(COc1ccc(Cl)cc1Cl)OS(=O)OCCF [19-(R,R)]","Hatching rate (%), Replicate 1","listed as 19-(R, R)",7.52%
same,"Hatching rate (%), Replicate 2","listed as 19-(R, R)",8.41%
same,"Hatching rate (%), Replicate 3","listed as 19-(R, R)",8.33%
same,"Number of hatched larvae 5 days after insecticide delivery, Replicate 1","listed as 19-(R, R)",10
same,"Number of hatched larvae 5 days after insecticide delivery, Replicate 2","listed as 19-(R, R)",9
same,"Number of hatched larvae 5 days after insecticide delivery, Replicate 3","listed as 19-(R, R)",7
"CC[C@H](COc1ccc(Cl)cc1Cl)OS(=O)OCCF (stereo partly drawn) [19-(R,S)]",inhibitory effect on the hatching of eggs of Panonychus citri (in words),,good inhibitory effects
same,"Hatching rate (%), Replicate 1",,0.00%
same,"Hatching rate (%), Replicate 2",,0.00%
same,"Hatching rate (%), Replicate 3",,0.00%
same,"Number of hatched larvae 5 days after insecticide delivery, Replicate 1",,0
same,"Number of hatched larvae 5 days after insecticide delivery, Replicate 2",,0
same,"Number of hatched larvae 5 days after insecticide delivery, Replicate 3",,0
"CC[C@@H](COc1ccc(Cl)cc1Cl)OS(=O)OCCF (stereo partly drawn) [19-(S,R)]",inhibitory effect on the hatching of eggs of Panonychus citri (in words),,good inhibitory effects
same,"Hatching rate (%), Replicate 1",,0.00%
same,"Hatching rate (%), Replicate 2",,0.00%
same,"Hatching rate (%), Replicate 3",,0.00%
same,"Number of hatched larvae 5 days after insecticide delivery, Replicate 1",,0
same,"Number of hatched larvae 5 days after insecticide delivery, Replicate 2",,0
same,"Number of hatched larvae 5 days after insecticide delivery, Replicate 3",,0
"CCC(COc1ccc(Cl)cc1Cl)OS(=O)OCCF [19-(S,S)]","Hatching rate (%), Replicate 1","listed as 19-(S, S)",10.08%
same,"Hatching rate (%), Replicate 2","listed as 19-(S, S)",9.90%
same,"Hatching rate (%), Replicate 3","listed as 19-(S, S)",10.47%
same,"Number of hatched larvae 5 days after insecticide delivery, Replicate 1","listed as 19-(S, S)",12
same,"Number of hatched larvae 5 days after insecticide delivery, Replicate 2","listed as 19-(S, S)",10
same,"Number of hatched larvae 5 days after insecticide delivery, Replicate 3","listed as 19-(S, S)",9

# From patent publication US20260184675A1, “CHIRAL ISOMERIC SULFITE COMPOUND AND APPLICATION THEREOF” (Chengdu Hanova BioSciences Co., Ltd, priority 2024, published 2026)
